Active and inactive are the calls of the source. No cut-off for these calls is given here.
Key:
[1] = molecular target: T1, Tyrosyl-DNA phosphodiesterase 2 (Homo sapiens, UniProt O95551); assay: Inhibition of human recombinant TDP2 using alpha32P-cordycepin-3'-labeled TY19 as substrate after 15 mins by PAGE method
T1 sequence (O95551 whole entry): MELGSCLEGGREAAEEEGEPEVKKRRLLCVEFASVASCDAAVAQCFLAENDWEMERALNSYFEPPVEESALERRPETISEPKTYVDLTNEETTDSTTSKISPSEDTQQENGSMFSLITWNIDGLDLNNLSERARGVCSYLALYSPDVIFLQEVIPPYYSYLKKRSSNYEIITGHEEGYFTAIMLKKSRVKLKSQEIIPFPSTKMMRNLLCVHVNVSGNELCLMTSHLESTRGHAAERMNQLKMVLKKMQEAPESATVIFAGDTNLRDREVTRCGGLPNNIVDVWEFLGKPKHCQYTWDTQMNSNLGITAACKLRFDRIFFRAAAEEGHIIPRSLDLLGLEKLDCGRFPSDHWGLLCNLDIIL

[2] = molecular target: T2, Tyrosyl-DNA phosphodiesterase 2 (Danio rerio, UniProt Q5XJA0); assay: Inhibition of zebra fish recombinant TDP2 using alpha32P-cordycepin-3'-labeled TY19 as substrate after 15 mins by PAGE method
T2 sequence (Q5XJA0 whole entry): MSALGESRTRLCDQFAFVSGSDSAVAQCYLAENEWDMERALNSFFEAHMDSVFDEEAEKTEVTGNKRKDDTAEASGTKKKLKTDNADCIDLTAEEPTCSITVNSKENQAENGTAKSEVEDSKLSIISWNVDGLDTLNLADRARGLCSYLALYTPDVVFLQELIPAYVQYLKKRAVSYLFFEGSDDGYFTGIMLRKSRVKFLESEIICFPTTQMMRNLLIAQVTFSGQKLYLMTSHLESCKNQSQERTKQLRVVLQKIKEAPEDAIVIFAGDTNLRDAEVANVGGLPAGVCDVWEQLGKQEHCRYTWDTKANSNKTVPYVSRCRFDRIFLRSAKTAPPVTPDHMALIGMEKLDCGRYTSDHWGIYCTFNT

[3] = molecular target: T3, Tyrosyl-DNA phosphodiesterase 2 (Homo sapiens) (UniProt O95551); assay: Inhibition of endogenous human TDP2 within whole cell extracts from human TDP2-complemented DT40 chicken cells using TY19 DNA as substrate after 15 mins by spectrophotometric analysis
T3 sequence (whole entry): T1 sequence (O95551 whole entry)

[4] = molecular target: T4, Tyrosyl-DNA phosphodiesterase 1 (Homo sapiens, UniProt Q9NUW8); assay: Effect on human TDP1 up to 200 uM
T4 sequence (Q9NUW8 whole entry): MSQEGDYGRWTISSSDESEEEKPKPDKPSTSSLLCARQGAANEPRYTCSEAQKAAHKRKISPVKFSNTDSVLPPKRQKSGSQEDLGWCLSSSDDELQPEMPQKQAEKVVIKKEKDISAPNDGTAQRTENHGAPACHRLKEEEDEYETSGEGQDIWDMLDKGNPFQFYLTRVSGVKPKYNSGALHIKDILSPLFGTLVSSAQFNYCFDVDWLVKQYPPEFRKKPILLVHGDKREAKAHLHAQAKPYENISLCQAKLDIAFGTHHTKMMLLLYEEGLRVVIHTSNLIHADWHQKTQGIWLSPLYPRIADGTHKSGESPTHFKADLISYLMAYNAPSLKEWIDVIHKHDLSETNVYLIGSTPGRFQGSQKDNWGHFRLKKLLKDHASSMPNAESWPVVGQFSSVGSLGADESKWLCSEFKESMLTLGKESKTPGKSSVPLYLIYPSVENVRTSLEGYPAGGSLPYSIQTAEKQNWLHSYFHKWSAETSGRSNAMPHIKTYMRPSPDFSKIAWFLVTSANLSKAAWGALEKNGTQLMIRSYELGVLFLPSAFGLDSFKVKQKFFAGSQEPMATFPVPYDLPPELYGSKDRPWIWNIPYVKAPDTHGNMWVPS

[5] = molecular target: T1, Tyrosyl-DNA phosphodiesterase 2; assay: Inhibition of human TDP2
[6] = molecular target: T5, Tyrosyl-DNA phosphodiesterase 2 (Mus musculus, UniProt Q9JJX7); assay: Inhibition of mouse recombinant TDP2 using alpha32P-cordycepin-3'-labeled TY19 as substrate after 15 mins by PAGE method
T5 sequence (Q9JJX7 whole entry): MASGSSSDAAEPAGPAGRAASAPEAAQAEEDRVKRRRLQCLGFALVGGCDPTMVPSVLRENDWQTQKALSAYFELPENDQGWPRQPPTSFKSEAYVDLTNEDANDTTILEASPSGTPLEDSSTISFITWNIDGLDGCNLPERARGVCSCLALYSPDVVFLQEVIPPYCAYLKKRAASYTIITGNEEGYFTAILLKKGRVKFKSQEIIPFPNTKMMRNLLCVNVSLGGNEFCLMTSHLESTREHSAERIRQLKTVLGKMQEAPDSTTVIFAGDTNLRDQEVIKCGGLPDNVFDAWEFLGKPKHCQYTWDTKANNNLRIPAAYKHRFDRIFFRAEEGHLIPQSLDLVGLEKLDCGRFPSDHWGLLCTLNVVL

[7] = molecular target: T4, Tyrosyl-DNA phosphodiesterase 1; assay: Inhibition of human recombinant TDP1 using 5'-[32P]-labeled N14Y as substrate after 15 mins by PAGE method

For `O=C(NC(CSSCC(NC(=O)c1ccccc1)C(=O)O)C(=O)O)c1ccccc1` (stereo not given), the IC50 [1] was 4.1 µM, the IC50 [2] was 15 µM and the inhibition [3] was “Active”.

With `COc1ccc(CC2C(=O)N(c3ccc([N+](=O)[O-])cc3)N=C2C(=O)O)cc1Oc1ccc(F)cc1` (stereo not given) the Activity [4] was “inactive” and the IC50 [5] was 12 µM.

Work on `O=C(Cc1ccccc1)NC(CSSCC(NC(=O)Cc1ccccc1)C(=O)O)C(=O)O` (stereo not given) yielded an IC50 [1] of 9 µM, an IC50 [2] of 20 µM and an IC50 [6] greater than 111 µM. The IC50 [7] was greater than 111 µM and the inhibition [3] was “Active”.

Work on `N#CCCN(CCC#N)c1ccc(/C=C2\C(=O)N(c3ccc(S(=O)(=O)O)cc3)N=C2C(=O)O)cc1` yielded an IC50 [1] of 3.5 µM, an IC50 [2] of 5.2 µM and an IC50 [6] of 15 µM. The IC50 [7] was greater than 111 µM and the inhibition [3] was “Active”.

Reference: ChEMBL document CHEMBL3813620, “Discovery of selective inhibitors of tyrosyl-DNA phosphodiesterase 2 by targeting the enzyme DNA-binding cleft” (Bioorg Med Chem Lett, 2016)
